Experimental data taken from publication PMC9460512, “A conserved sequence motif in the Escherichia coli soluble FAD-containing pyridine nucleotide transhydrogenase is important for reaction efficiency” (The Journal of Biological Chemistry, 2022).
Each block holds one molecule with its values, some of them ahead of it.

Tests used:
[1] = target: T1, SthA (UdhA), soluble pyridine nucleotide transhydrogenase (Escherichia coli, UniProt P27306); assay: thioNADPH formation rate at […] nm; type: biochemical; conditions: activator; 1.0 mM NADH, 0.15 mM thioNADP+, 50 mM Tris pH 7.5, 30 °C
[2] = target: T1, SthA (UdhA), soluble pyridine nucleotide transhydrogenase; assay: absorbance spectrum of purified holoenzyme (A280/[…]); type: binding; conditions: bound prosthetic group copurified; 20 μM FAD in lysis buffer
[3] = target: SthA (UdhA), soluble pyridine nucleotide transhydrogenase (Escherichia coli, UniProt P27306, C45A); assay: stopped-flow flavin reduction at […] nm, kobs vs NADH; type: biochemical; conditions: apparent; reductive half-reaction, anaerobic, 25 °C, no NADP+; 50 mM Tris pH 7.5
[4] = target: T1, SthA (UdhA), soluble pyridine nucleotide transhydrogenase; assay: as above; type: biochemical; conditions: apparent; reductive half-reaction, anaerobic, 25 °C, no NADP+; 50 mM Tris pH 7.5
[5] = target: SthA (UdhA), soluble pyridine nucleotide transhydrogenase (Escherichia coli, UniProt P27306, T50C); assay: as above; type: biochemical; conditions: apparent; reductive half-reaction, anaerobic, 25 °C, no NADP+; 50 mM Tris pH 7.5
[6] = target: T1, SthA (UdhA), soluble pyridine nucleotide transhydrogenase; assay: thioNADPH formation at […] nm, substrate-inhibition fit; type: biochemical; conditions: 50 mM Tris pH 7.5, 30 °C
purified protein [7] = substrate: NC(=O)C1=CN([C@@H]2O[C@H](COP(=O)(O)OP(=O)(O)OC[C@H]3O[C@@H](n4cnc5c(N)ncnc54)[C@H](OP(=O)(O)O)[C@@H]3O)[C@@H](O)[C@H]2O)C=CC1; assay: purified protein; type: biochemical, Escherichia coli; conditions: oxidase (uncoupling) reaction, 0.2 mM O2, no NAD(P)+, 50 mM Tris pH 7.5, 30 °C
purified protein [8] = substrate: NC(=S)c1ccc[n+]([C@@H]2O[C@H](COP(=O)(O)OP(=O)(O)OC[C@H]3O[C@@H](n4cnc5c(N)ncnc54)[C@H](OP(=O)(O)O)[C@@H]3O)[C@@H](O)[C@H]2O)c1; assay: purified protein; type: biochemical, Escherichia coli; conditions: transhydrogenase reaction, 10.0 mM NADH, 50 mM Tris pH 7.5, 30 °C
[9] = target: the molecule itself; assay: dynamic light scattering; purified SthA (>1 mg/ml) in a microcuvette, DynaPro Nanostar, 20 °C, three independent purification batches; oligomer size from the hydrodynamic radius

Sequence of SthA (UdhA), soluble pyridine nucleotide transhydrogenase (Escherichia coli, UniProt P27306, T50C) (P27306 2-466 T50C): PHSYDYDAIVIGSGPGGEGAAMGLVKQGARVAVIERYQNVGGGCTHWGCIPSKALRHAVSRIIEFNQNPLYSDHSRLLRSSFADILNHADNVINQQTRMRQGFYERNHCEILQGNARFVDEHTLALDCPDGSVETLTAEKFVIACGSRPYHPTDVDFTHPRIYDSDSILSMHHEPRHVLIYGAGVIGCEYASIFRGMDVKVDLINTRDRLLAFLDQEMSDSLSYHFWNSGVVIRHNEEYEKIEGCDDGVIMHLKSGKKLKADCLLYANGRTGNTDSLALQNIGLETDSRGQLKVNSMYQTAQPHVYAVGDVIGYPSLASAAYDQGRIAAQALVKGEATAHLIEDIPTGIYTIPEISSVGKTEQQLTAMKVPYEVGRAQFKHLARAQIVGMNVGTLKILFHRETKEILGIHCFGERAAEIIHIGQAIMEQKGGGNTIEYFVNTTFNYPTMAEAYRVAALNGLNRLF
Sequence of SthA (UdhA), soluble pyridine nucleotide transhydrogenase (Escherichia coli, UniProt P27306, C45A) (P27306 2-466 C45A): as the sequence (P27306 2-466 T50C) above, with C44A, C49T counted along it

Molecule: Nc1ncnc2c1ncn2[C@@H]1O[C@H](COP(=O)(O)OP(=O)(O)O)[C@@H](O)[C@H]1O [ADP]
% activity at 5.0 mM [1]: ADP was the best reaction activator, followed by AMP and ATP, respectively.

Molecule: Nc1ncnc2c1ncn2[C@@H]1O[C@H](COP(=O)(O)O)[C@@H](O)[C@H]1O [AMP]
% activity at 5.0 mM [1]: all three adenine nucleotides increased the rate of thioNADPH formation

Molecule: Nc1ncnc2c1ncn2[C@@H]1O[C@H](COP(=O)(O)OP(=O)(O)OP(=O)(O)O)[C@@H](O)[C@H]1O [ATP]
% activity at 5.0 mM [1]: all three adenine nucleotides increased the rate of thioNADPH formation

Molecule: Cc1cc2nc3c(=O)[nH]c(=O)nc-3n(C[C@H](O)[C@H](O)[C@H](O)COP(=O)(O)OP(=O)(O)OC[C@H]3O[C@@H](n4cnc5c(N)ncnc54)[C@H](O)[C@@H]3O)c2cc1C [FAD]
absorbance spectrum of purified holoenzyme (A280/450) [2]: absorbance spectrum of the purified protein indicated the presence of bound oxidized FAD

Kd [3]: 300 ± 100 µM
Kd [4]: 88 ± 27 µM
Kd [5]: 227 ± 61 µM
KI ([6]; 0.5 mM thioNADP+): 12100 ± 2000 µM
Molecule: NC(=O)C1=CN([C@@H]2O[C@H](COP(=O)(O)OP(=O)(O)OC[C@H]3O[C@@H](n4cnc5c(N)ncnc54)[C@H](O)[C@@H]3O)[C@@H](O)[C@H]2O)C=CC1 [NADH]

KI ([6]; 10.0 mM NADH): 590 ± 260 µM
Molecule: NC(=S)c1ccc[n+]([C@@H]2O[C@H](COP(=O)(O)OP(=O)(O)OC[C@H]3O[C@@H](n4cnc5c(N)ncnc54)[C@H](OP(=O)(O)O)[C@@H]3O)[C@@H](O)[C@H]2O)c1 [thioNADP+]

B1: SthA (UdhA), soluble pyridine nucleotide transhydrogenase (Escherichia coli K-12) (protein)
chain: PHSYDYDAIVIGSGPGGEGAAMGLVKQGARVAVIERYQNVGGGCTHWGTIPSKALRHAVSRIIEFNQNPLYSDHSRLLRSSFADILNHADNVINQQTRMRQGFYERNHCEILQGNARFVDEHTLALDCPDGSVETLTAEKFVIACGSRPYHPTDVDFTHPRIYDSDSILSMHHEPRHVLIYGAGVIGCEYASIFRGMDVKVDLINTRDRLLAFLDQEMSDSLSYHFWNSGVVIRHNEEYEKIEGCDDGVIMHLKSGKKLKADCLLYANGRTGNTDSLALQNIGLETDSRGQLKVNSMYQTAQPHVYAVGDVIGYPSLASAAYDQGRIAAQALVKGEATAHLIEDIPTGIYTIPEISSVGKTEQQLTAMKVPYEVGRAQFKHLARAQIVGMNVGTLKILFHRETKEILGIHCFGERAAEIIHIGQAIMEQKGGGNTIEYFVNTTFNYPTMAEAYRVAALNGLNRLF
Km (purified protein [7]): 91.8 ± 30.5 µM
kcat (purified protein [7]): 0.2 ± 0.03 s⁻¹
kcat/Km (purified protein [7]): 2200 M⁻¹ s⁻¹
Km (purified protein [8]): 120 ± 40 µM
kcat (purified protein [8]): 15.3 ± 3.1 s⁻¹
kcat/Km (purified protein [8]): 128000 M⁻¹ s⁻¹

B2: soluble pyridine nucleotide transhydrogenase SthA from Escherichia coli K-12 (enzyme, E. coli K-12, UniProt P27306 1-466, looked up)
chain: MPHSYDYDAIVIGSGPGGEGAAMGLVKQGARVAVIERYQNVGGGCTHWGTIPSKALRHAVSRIIEFNQNPLYSDHSRLLRSSFADILNHADNVINQQTRMRQGFYERNHCEILQGNARFVDEHTLALDCPDGSVETLTAEKFVIACGSRPYHPTDVDFTHPRIYDSDSILSMHHEPRHVLIYGAGVIGCEYASIFRGMDVKVDLINTRDRLLAFLDQEMSDSLSYHFWNSGVVIRHNEEYEKIEGCDDGVIMHLKSGKKLKADCLLYANGRTGNTDSLALQNIGLETDSRGQLKVNSMYQTAQPHVYAVGDVIGYPSLASAAYDQGRIAAQALVKGEATAHLIEDIPTGIYTIPEISSVGKTEQQLTAMKVPYEVGRAQFKHLARAQIVGMNVGTLKILFHRETKEILGIHCFGERAAEIIHIGQAIMEQKGGGNTIEYFVNTTFNYPTMAEAYRVAALNGLNRLF
notes: Soluble pyridine nucleotide transhydrogenase SthA (UdhA) of E. coli K-12; protomer with a calculated molar mass of around 54 kDa; No removal of the His tag is described; also called UdhA; soluble transhydrogenase
stoichiometry N [9]: 8
